Reference: patent US8772244B2, “Tubulin inhibitors” (R&D Biopharmaceuticals GmbH, priority 2009, dated 2014)

What was measured:
Format in all cases: cell-based
HCT-116 = experiment: BrdU-Assay, IC-50 against cancer cell line HCT-116; conditions: Homo sapiens; HCT-116, BrdU-Assay
Description: (§1) Determination of the IC-50 Concentration Against Various Cancer Cell Lines
(§2) The activity of some representative example compounds of the present invention has been determined with the BrdU-Assay as described in: Porstmann T., Ternynck T., Avrameas S. (1985) “Quantification of 5-bromo-2-deoxyuridine incorporation into DNA: an enzyme immunoassay for the assessment of the lymphoid cell proliferative response.” J. Immunol. Methods 82: 169-179.

Skov-3 = experiment: BrdU-Assay, IC-50 against cancer cell line Skov-3; conditions: Homo sapiens, SK-OV-3; Skov-3, BrdU-Assay
Description: as §1, §2

MCF-7 = experiment: BrdU-Assay, IC-50 against cancer cell line MCF-7; conditions: Homo sapiens, MCF7; MCF-7, BrdU-Assay
Description: as §1, §2

MCF-7 MX100 = experiment: BrdU-Assay, IC-50 against cancer cell line MCF-7 MX100; conditions: MCF7/MX100; MCF-7 MX100, BrdU-Assay
Description: as §1, §2

MCF-7 TX200 = experiment: BrdU-Assay, IC-50 against cancer cell line MCF-7 TX200; conditions: Homo sapiens; MCF-7 TX200, BrdU-Assay
Description: as §1, §2

MCF-7 VP = experiment: BrdU-Assay, IC-50 against cancer cell line MCF-7 VP; conditions: Homo sapiens, MCF7-VP
Description: as §1, §2

Compound | IC50 (HCT-116) [nM] | IC50 (Skov-3) [nM] | IC50 (MCF-7) [nM] | IC50 (MCF-7 MX100) [nM] | IC50 (MCF-7 TX200) [nM] | IC50 (MCF-7 VP) [nM]
CCCN(C(=O)C(NC(=O)C1CCCCN1C)[C@@H](C)CC)[C@H](C[C@@H](OCOC)c1nc(C(=O)N[C@@H](Cc2ccccc2)C[C@H](C)CO)cs1)C(C)C (stereo partly drawn) [MSRD368] | 41.1 | 29.9 | 3.91 | 4.01 | 322 | 6.38
CCCN(C(=O)C(NC(=O)C1CCCCN1C)[C@@H](C)CC)[C@H](C[C@@H](OC(C)=O)c1nc(C(=O)N[C@H](CO)Cc2ccccc2)cs1)C(C)C (stereo partly drawn) [MSRD390] | 1.1 | 1.06 | 0.27 | 0.2 | 24.4 | 0.54
CC[C@H](C)C(NC(=O)C1CCCCN1C)C(=O)N[C@H](C[C@@H](OC(C)=O)c1nc(C(=O)N[C@@H](Cc2ccccc2)C[C@H](C)CO)cs1)C(C)C (stereo partly drawn) [SDRD28] | 4.31 | 3.35 | 0.55 | 1.41 | 370 | 3.04
CCCN(C(=O)C(NC(=O)C1CCCCN1C)[C@@H](C)CC)[C@H](C[C@@H](OC(C)=O)c1nc(C(=O)N[C@@H](Cc2ccccc2)C[C@H](C)CO)cs1)C(C)C (stereo partly drawn) [MSRD334] | 1.06 | 1.05 | 0.57 | 0.62 | 15.6 | 0.88
CC[C@H](C)C(NC(=O)C1CCCCN1C)C(=O)N(C)[C@H](C[C@@H](OC(C)=O)c1nc(C(=O)N[C@@H](Cc2ccccc2)C[C@H](C)CO)cs1)C(C)C (stereo partly drawn) [MSRD345] | 1.35 | 1.18 | 0.4 | 0.28 | 50.6 | 1.2
